Reference: US8217035B2, “Pyrimidine derivatives used as PI-3-kinase inhibitors” (Novartis AG, priority 2006, dated 2012)
Like-named read-outs stand apart in the source and are kept apart here.

Key:
[1] = test system: pSer473 Akt in A2780 cells; assay: pSer473 Akt assay to monitor PI3K pathway in A2780 cells (Biological Method 2, MSD); assay type: cell-based; settings: Homo sapiens; inhibition of Akt phosphorylation, A2780 cells
How it was run: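 A2780 ovarian cancer cells in DMEM/10% FBS were treated with compound for 1 h at 37 °C, then lysed. pSer473-Akt and total Akt were measured by MSD electrochemiluminescence immunoassay. The pSer473/total Akt ratio gave % inhibition versus DMSO, from which EC50 was derived.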

[2] = test system: A2780 ovarian cancer cells; assay: Cellular proliferation in A2780 cells, Cell Titer Glo (Biological Method 4); assay type: cell-based; settings: Homo sapiens; ovarian cancer cell line A2780
How it was run: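 Viability after 72 h compound exposure (37 °C, 5% CO2) was read by Cell Titer Glo and an EC50 derived, each condition in duplicate. A2780 ovarian cells had been plated at 1,000 per well in DMEM/10% FBS at least 2 h beforehand.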

[3] = test system: Akt^Ser473 phosphorylation in A2780 xenograft tumors; assay: In vivo target modulation (PK/PD) in A2780 ovarian cancer xenograft tumors (Biological Method 3); set-up: species or system nu/nu mice; settings: for inhibition at 60 mg/kg: 60 mg/kg single oral dose; for inhibition at 60 mg/kg / inhibition at 100 mg/kg: A2780 xenograft tumors, read-out: Modulation of Akt^Ser473 phosphorylation (percentage inhibition compared to vehicle); for inhibition at 100 mg/kg: 100 mg/kg single oral dose
Description: (§1) A2780 ovarian cancer cells obtained from George Coukos (Fox Chase Cancer Center, University of Pennsylvania, Philadelphia, Pa.) were maintained in DMEM (Invitrogen, Inc.) supplemented with 10% heat-inactivated fetal bovine serum with 1% glutamine. Cells were propagated as recommended by the Dr. Coukos and colleagues. Female nu/nu mice (8-12 weeks old, 20-25 g, Charles River) were used for all in vivo pharmacology studies. The mice were housed and maintained in accordance with state and federal guidelines for the humane treatment and care of laboratory animals and received food and water ad libitum. Cancer cells were harvested from mid-log phase cultures using trypsin-EDTA (Invitrogen, Inc.). Five million cells were subcutaneously injected into the right flank of each mouse. Compound treatment was initiated when tumor size reached to 300-400 mm^3 for PK/PD studies and 200-300 mm^3 for efficacy studies. All compound treatment was administrated orally. Tumor volumes were determined by using StudyDirector software.
For PK/PD dose-dependent studies, tumor-bearing mice were given a single oral dose of compound at different concentrations (10, 30, 60 and 100 mg/kg or vehicle) and tumors were resected at 10 hr or 24 hr after dosing. Blood samples were taken by cardiac puncture using a syringe primed with heparin sulfate. Resected tumors were snap frozen on dry ice and pulverized using a liquid nitrogen-cooled cryomortar and pestle, and lysed in cold cell extraction buffer (Biosource) containing protease inhibitor tablet (Complete; EDTA-free, Amersham). Supernatants were taken after centrifugation of tumor lysates at 300×g for 10 min at 4° C. and the protein concentration in each supernatant was determined by BCA (BioRad). An equal amount of protein from each tumor lysate was loaded onto 10% Tris-glycine gels (Invitrogen), for sodiumdoceylsulfate-polyacrylamide gel electrophoresis (SDS-PAGE) after which proteins were transferred from the gel onto PVDF membrane. Membranes were probed with antibodies that recognize phosphoAkt^Ser473 or phosphoAkt^Thr308 (Cell Signaling) followed by secondary goat anti-rabbit IgG conjugated to HRP(Amersham). Positive bands were visualized by enhanced chemiluminescence with X-ray film. Similar procedures were used to determine total AKT in the same tumor lysates to serve as normalization for total protein in each determination. The density of the positive band on the X-ray film was scanned and the target modulation for each compound was expressed as percentage inhibition by each compound compared to vehicle treatment.
(§2) For efficacy studies, A2780 cancer cells (5×10^6 in 100 μl of DMEM culture medium) were injected subcutaneously into the right flank of each nu/nu mouse. […] Tumor growth and animal body weight was measured twice weekly with daily clinical observation to monitor potential toxicities related to the treatment. […] Activation of the PI3K signaling pathway results in the phosphorylation of the downstream signaling molecule Akt at Ser^473 and/or Thr^308. Compound modulation of Akt^Ser473 phosphorylation was examined in A2780 xenograft tumors at time points ranging from 30 min to 36 hr after a single compound dose at 60 or 100 mg/kg.

A2780 tumor xenograft = assay: Efficacy study in A2780 ovarian cancer xenograft model (Biological Method 3); assay type: in vivo, nu/nu mice
Description: as §1, §2

PI3 kinase alpha = PI3 kinase alpha (Homo sapiens, UniProt P42336); assay: PI3K ATP depletion assay (Biological Method 1, Assay 3; KinaseGlo luminescence); assay type: biochemical; settings: ATP depletion assay; read-out: PI3 Kinase Alpha, IC50
Chain of PI3 kinase alpha (P42336 whole entry): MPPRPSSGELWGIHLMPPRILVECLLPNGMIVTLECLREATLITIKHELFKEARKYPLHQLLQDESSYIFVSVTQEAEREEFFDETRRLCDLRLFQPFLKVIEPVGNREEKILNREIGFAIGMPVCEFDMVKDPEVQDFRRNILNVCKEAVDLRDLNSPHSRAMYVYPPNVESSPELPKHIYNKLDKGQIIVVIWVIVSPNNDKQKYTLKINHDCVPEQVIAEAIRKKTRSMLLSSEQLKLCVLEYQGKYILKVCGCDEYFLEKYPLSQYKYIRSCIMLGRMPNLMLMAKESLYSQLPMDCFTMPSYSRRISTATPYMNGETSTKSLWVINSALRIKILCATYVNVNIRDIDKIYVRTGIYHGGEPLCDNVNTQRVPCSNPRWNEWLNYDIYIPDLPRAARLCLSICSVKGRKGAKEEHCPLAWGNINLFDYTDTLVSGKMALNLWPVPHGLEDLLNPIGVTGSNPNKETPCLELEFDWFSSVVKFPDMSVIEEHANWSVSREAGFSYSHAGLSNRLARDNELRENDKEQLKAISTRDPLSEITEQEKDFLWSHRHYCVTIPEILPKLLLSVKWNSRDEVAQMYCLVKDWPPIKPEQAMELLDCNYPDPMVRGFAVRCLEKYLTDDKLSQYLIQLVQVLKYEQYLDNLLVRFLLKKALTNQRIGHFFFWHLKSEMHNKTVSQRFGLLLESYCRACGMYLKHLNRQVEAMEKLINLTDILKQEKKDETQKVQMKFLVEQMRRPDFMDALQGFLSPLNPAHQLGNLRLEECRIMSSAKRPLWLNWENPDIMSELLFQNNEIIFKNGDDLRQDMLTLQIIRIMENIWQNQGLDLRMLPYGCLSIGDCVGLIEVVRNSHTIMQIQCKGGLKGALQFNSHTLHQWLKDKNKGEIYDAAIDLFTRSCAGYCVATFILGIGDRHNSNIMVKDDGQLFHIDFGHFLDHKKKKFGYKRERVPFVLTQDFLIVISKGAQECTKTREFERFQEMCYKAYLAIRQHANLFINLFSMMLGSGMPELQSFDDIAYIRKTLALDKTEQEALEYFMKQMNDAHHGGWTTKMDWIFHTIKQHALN
Chain of PI3 kinase alpha (P27986 whole entry partner): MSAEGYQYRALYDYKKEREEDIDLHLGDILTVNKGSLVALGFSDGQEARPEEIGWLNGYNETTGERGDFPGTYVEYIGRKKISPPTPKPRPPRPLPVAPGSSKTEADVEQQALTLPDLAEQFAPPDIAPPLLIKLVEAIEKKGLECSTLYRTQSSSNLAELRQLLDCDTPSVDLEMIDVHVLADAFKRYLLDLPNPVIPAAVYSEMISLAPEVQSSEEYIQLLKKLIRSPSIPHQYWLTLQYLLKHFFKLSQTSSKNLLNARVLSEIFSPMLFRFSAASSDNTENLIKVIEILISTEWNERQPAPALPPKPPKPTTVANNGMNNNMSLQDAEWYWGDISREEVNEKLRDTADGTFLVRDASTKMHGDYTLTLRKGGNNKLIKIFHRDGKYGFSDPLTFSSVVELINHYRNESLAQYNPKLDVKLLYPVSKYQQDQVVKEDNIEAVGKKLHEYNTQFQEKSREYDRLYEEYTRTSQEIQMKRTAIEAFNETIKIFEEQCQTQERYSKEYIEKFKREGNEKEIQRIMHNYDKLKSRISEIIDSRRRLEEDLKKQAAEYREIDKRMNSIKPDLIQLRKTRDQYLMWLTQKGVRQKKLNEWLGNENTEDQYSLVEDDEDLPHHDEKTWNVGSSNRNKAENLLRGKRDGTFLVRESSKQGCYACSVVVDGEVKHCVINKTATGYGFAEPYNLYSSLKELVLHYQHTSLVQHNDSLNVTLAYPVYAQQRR
How it was run: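 Compound in DMSO was mixed with 10 nM PI3 kinase and 5 μg/mL phosphatidylinositol, and the reaction was started with 2 μM ATP. It ran to about 50% ATP depletion and was stopped with KinaseGlo.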

[4] = 60 mg/kg oral daily, A2780 model

SMILES | EC50 [1] [µM] | EC50 [2] [µM] | IC50 (PI3 kinase alpha) [µM] | inhibition at 60 mg/kg ([3]; Mus musculus, 10 hr) [%] | inhibition at 100 mg/kg ([3]; Mus musculus, 8 hr) [%] | further results
COc1ccc(Nc2cc(-c3cnc(N)nc3)nc(N3CCOCC3)n2)cn1 [Compound 91] | < 1 | < 1 |  |  | > 50 | Duration of target modulation (50% inhibition) ([3]; 60 mg/kg, A2780 tumors): 8 h; Tumor growth inhibition (A2780 tumor xenograft; 10 mg/kg oral twice daily, A2780 tumors (FIG. 1)): no inhibitory activity; Tumor growth inhibition (A2780 tumor xenograft; 60 mg/kg oral twice daily, A2780 tumors (FIG. 1)): 50%
Cc1c(Nc2cnc3ccccc3c2)nc(N2CCOCC2)nc1-c1cnc(N)nc1 [Compound 103] | < 1 | < 1 | < 1 |  | < 50 | 
Nc1ccc(-c2cc(Nc3cnc4ccccc4c3)nc(N3CCOCC3)n2)cn1 [Compound 183] | < 1 | < 1 |  |  | 50 to 75 | 
N#Cc1cc(N)ncc1-c1cc(Nc2ccncc2C(F)(F)F)nc(N2CCOCC2)n1 [Compound 94] | < 1 | < 1 | < 1 |  |  | 

Second part, led by results:

EC50 [1] [µM] | EC50 [2] [µM] | IC50 (PI3 kinase alpha) [µM] | SMILES | inhibition at 60 mg/kg ([3]; Mus musculus, 10 hr) [%] | inhibition at 100 mg/kg ([3]; Mus musculus, 8 hr) [%] | further results
< 1 | < 1 |  | Nc1cc(C(F)(F)F)c(-c2cc(N3CCOCC3)nc(N3CCOCC3)n2)cn1 [Compound 10] | > 75 |  | inhibition at 30 mg/kg ([3]; Mus musculus, A2780, 30 mg/kg oral b.i.d., read-out: Target inhibition in A2780 tumors, sustained over the whole dosing period): < 75%; inhibition at 100 mg/kg ([3]; Mus musculus, 10 hr): > 75%; Antitumor activity (A2780 tumor xenograft; 30 mg/kg oral b.i.d., A2780 model (FIG. 5)): significant antitumor activity; Tumor growth inhibition (A2780 tumor xenograft; 30 mg/kg oral daily, A2780 model): 40%; Tumor growth inhibition (A2780 tumor xenograft; [4]): 70%; Tumor growth inhibition (A2780 tumor xenograft; 100 mg/kg oral daily, A2780 model (FIG. 2)): tumor growth stasis
< 1 | < 1 | < 1 | Nc1ncc(-c2cc(OC3CCOCC3)nc(N3CCOCC3)n2)c(N)n1 [Compound 84] | 50 to 75 |  | Tumor growth inhibition (A2780 tumor xenograft; [4]): < 50%
< 1 | < 10 | < 1 | Nc1ncc(-c2cc(OC3CCOCC3)nc(N3CCOCC3)n2)c(C(F)(F)F)n1 [Compound 66] | < 50 |  | 
< 1 | < 1 | < 1 | CC(=O)N1CCC(Oc2cc(-c3cnc(N)[nH]c3=O)nc(N3CCOCC3)n2)CC1 [Compound 30] |  |  | 
< 1 | < 1 | < 1 | CC(C)OC(=O)N1CCC(Oc2cc(-c3cnc(N)[nH]c3=O)nc(N3CCOCC3)n2)CC1 [Compound 32] |  |  | 
